According to US8679746B2, “Compositions and methods for predicting outcome of treatment” (Dako Denmark A/S, priority 2005, dated 2014):

Tests used:
[1] = test system: metastatic head and neck cancer; assay: 5-FU infusion in a patient with metastatic head and neck cancer; format: in vivo; settings: one patient; 1000 mg/m^2 per 24 hours, 120 hours infusion; evaluated after one and a half month
Experimental: A patient with metastatic head and neck cancer was treated with 5-fluorouracil (5-FU) infusion at a dose of 1000 mg/m^2 per 24 hours. The total infusion time was 120 hours.

[2] = cited from earlier work
breast cancer = settings: in vivo; cited from earlier work

O=c1[nH]cc(F)c(=O)[nH]1 [5-FU, 5-Fluorouracil]
treatment response [1]: progressive disease

CCCCCOC(=O)Nc1nc(=O)n([C@@H]2O[C@H](C)[C@@H](O)[C@H]2O)cc1F [capecitabine]
higher concentrations in tumor tissue compared to plasma ([2]; tumor tissue vs plasma): 21 fold | higher FU concentration in tumor compared to normal tissue ([2]; tumor vs normal tissue): 3.2 fold

COc1cccc2c1C(=O)c1c(O)c3c(c(O)c1C2=O)C[C@@](O)(C(=O)CO)C[C@@H]3O[C@H]1C[C@H](N)[C@@H](O)[C@H](C)O1 [epirubicin]
reduction in overall survival on substitution of methotrexate in CMF with epirubicin (breast cancer): 25%
